The record followed here is US4622338A, “Substituted glutaric acid lactones in the treatment of hyperlipidemia” (G. D. Searle & Co., priority 1985, dated 1986).

In the test the target is T1, rat liver microsomal HMGCoA reductase (Rattus norvegicus, UniProt P51639).
T1 construct: rat liver microsomal HMGCoA reductase; from tissue; host or cells: rat liver microsomes
T1 sequence (P51639 1-887): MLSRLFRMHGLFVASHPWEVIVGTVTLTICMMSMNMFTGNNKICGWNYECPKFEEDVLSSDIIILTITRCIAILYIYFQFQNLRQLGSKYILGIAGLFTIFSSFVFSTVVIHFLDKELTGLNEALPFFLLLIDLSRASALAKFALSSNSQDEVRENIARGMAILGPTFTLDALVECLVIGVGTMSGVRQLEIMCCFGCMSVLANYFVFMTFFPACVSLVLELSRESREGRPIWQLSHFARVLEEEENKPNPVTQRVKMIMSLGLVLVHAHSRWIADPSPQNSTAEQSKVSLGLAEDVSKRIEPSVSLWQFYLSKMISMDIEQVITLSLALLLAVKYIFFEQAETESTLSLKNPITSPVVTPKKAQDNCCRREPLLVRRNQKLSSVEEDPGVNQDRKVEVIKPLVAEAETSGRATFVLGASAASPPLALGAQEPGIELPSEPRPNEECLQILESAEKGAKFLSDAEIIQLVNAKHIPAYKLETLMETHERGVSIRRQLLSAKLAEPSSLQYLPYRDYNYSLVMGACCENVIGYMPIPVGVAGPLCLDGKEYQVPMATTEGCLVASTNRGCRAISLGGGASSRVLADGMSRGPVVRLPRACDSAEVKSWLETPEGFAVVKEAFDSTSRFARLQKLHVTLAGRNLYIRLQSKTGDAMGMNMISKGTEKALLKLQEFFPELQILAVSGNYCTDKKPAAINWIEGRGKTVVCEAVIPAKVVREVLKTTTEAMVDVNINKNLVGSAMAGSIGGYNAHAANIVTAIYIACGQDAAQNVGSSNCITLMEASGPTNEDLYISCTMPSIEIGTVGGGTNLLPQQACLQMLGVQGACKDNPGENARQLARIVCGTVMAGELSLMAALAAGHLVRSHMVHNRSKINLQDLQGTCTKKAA
As to the kind of experiment: in vitro inhibition of rat liver microsomal HMGCoA reductase. In kind it is biochemical. The note with it: read-out: % inhibition (HMG CoA reductase); for inhibition at 50 µM: at 5.0×10^-5 M. The procedure: The in vitro inhibitory activity of the present compounds is evaluated using rat liver microsomal HMGCoA reductase as described by Edwards, et al. J. Biol. Chem. 249, 2891 (1974). The IC50 is defined as the concentration required to inhibit the enzyme by 50% of control.
HMG derivaties are added to a preincubation mixture consisting of 0.1 M K PO4, PH7.2, 0.02 M glucose-6-PO4, 2.5 mM NADP, 0.7 units of glucose-6-PO4 dehydrogenase, 5 mM dithiothreitol, 50 mM mevalonic acid and approximately 50 μg of microsomal protein. Triplicate samples are preincubated for 15 min. at 37° C. in a volume of 1 ml. Incubation is started with 40 μM 14C-HMGCoA (0.1 ml) run for 15 min. at 37° C. and stopped with 5 N HCl (0.1 ml). Assay tubes are allowed to set for at least 30 min., then approximately 50,000 dpm of ^3 H-mevalonic acid are added to provide for extraction efficiency. Mevalonic acid is extracted with ether and the % ^14 C-HMGCoA incorporation determined for concurrent control and test reaction systems. Testing is done (first) with a range finding assay followed by a 4 or 5 point assay to find the IC50 value.
(In general: Liver microsomes are a subcellular fraction often used to study metabolism.)

A word on the inhibition: it is the change of the read-out against control, counted positive when it falls. In the case of `CCCCCCCCCCCCCC1CC(O)(CC(=O)O)CC(=O)O1` (stereo not drawn) [Example 1, 3-Carboxymethyl-3,5-Dihydroxyoctadecanoic Acid-1,5-Lactone], the inhibition at 50 µM amounted to 52%. As to `CC(CCCCCCCCC1CC(O)(CC(=O)O)CC(=O)O1)c1ccccc1` (stereo not drawn) [Example 2, 3-Carboxymethyl-3,5-dihydroxy-14-phenylpentadecanoic acid 1,5-Lactone], the inhibition at 50 µM is 57%. As to `CC(CCCCCCCCC1CC(O)(CC(=O)O)CC(=O)O1)C1CCCCC1` (stereo not drawn) [Example 3, 3-Carboxymethyl-14-cyclohexyl-3,5-dihydroxypentadecanoic acid 1,5-lactone], the inhibition at 75 µM (at 7.5×10^-5 M) turned out to be 49%.
